{"source": "patent US20150247149A1", "about": "“Detecting and Treating Liver Damage” (The Regents of the University of California, priority 2012, published 2015)", "key": {"[1]": {"system": "HUVECs", "assay": "HUVEC tube formation assay", "assay_type": "cell-based, human", "method": "HUVECs (0.5-1×10^5 cells per well) were seeded onto a coated 24-well plate culture dishes with 200 μl/cm2 (thick gel method) of Matrigel (BD, Franklin Lakes, N.J., USA) and cultured in EBM-2 basal medium supplemented with 1.1% of streptomycin and penicillin in the presence of 100 ng/mL of VEGF (Peprotech, Rocky Hill, N.J., USA), hepatocytes-derived MPs, MP-free supernatant or conditioned supernatant collected after 24 hours of treatment with FFAs. In selective studies, a specific inhibitor for RhoA-ROCK (Y27632, 10 μM) was used in association with MPs in the treatment of endothelial cells. For the ex vivo studies, PFP isolated from different groups of mice (chow, HF/HCarb, MCD fed mice and mice injected with control RNA, VNN1 siRNA or PBS as vehicle) were ultracentrifuged at 100,000 g for 1 h at 10° C. to pellet the blood MPs. HUVECs were treated with MPs (or blood pure MPs) and incubated for 5 h at 37° C. Tube formation was investigated by using an inverted microscope at 4× magnification and images were captured. Tube formation image analysis was assessed by using Wimtube software (Wimasis, Munich, Germany) and the values referred to total tube length (pixel) were used for statistical and data analysis."}, "[2]": {"system": "HUVECs", "assay": "HUVEC migration (Boyden's chamber chemotaxis, wound healing)", "assay_type": "cell-based, human", "method": "In vitro migration studies have been performed by using human umbilical cell endothelial cells (HUVECs). Wound healing assay was performed to analyze chemokinesis (non-oriented migration) by using collagen-coated 6-well culture plate, where a silicon elastomer (PDMS) strip was placed vertically to the bottom of every well to create the artificial wound. HUVECs were plated and grown until reaching the complete confluence. HUVECs were treated with EBM-2 supplemented with 100 ng/mL of VEGF (Peprotech, Rocky Hill, N.J., USA), hepatocytes-derived MPs, MP-free supernatant or supernatant collected after 24 hours of treatment with FFAs. The strips were removed carefully and migration of cells was detected by a confocal microscope, capturing one picture per field every 10 minutes for 48 hours. Mitomycin (1 μg/ml) was used to inhibit cell proliferation during wound healing assay. Data were analyzed by using Wimscratch software (Wimasis, Munich, Germany) in order to get the total cell-covered area (pixel). Boyden's chamber assay was performed to analyze chemotaxis (oriented migration) by using cell culture inserts 8 μm pore size (Millipore, Billerica, Mass., USA) and 24-well plate. Each well was filled with 500 μl of serum free EBM-2 media in presence or absence of the following chemoattractants: 100 ng/mL VEGF; hepatocytes-derived MPs; MP-free supernatant or conditioned supernatant. The inserts were placed on top of each well and 150 μl of cell suspension (5×10^4 cells) was added. Plates were incubated overnight at 37° C., and then the filters were removed and stained with Vectashield mounting medium with 4′,6-diamino-2-phenylindole (DAPI) (Vector Labs, Burlingame, Calif., USA).\nMigrated cells were detected with a fluorescence microscope and number per field of their nuclei was counted. For the ex vivo studies, PFP isolated from different groups of mice (chow, HF/HCarb, MCD fed mice and mice injected with control siRNA, VNN1 siRNA or PBS as vehicle) were ultracentrifuged at 100,000 g for 1 h at 10° C. to pellet the blood MPs."}, "[3]": {"system": "HepG2 and primary rat hepatocytes", "assay": "Release of Annexin V-positive MPs from hepatocytes (flow cytometry)", "assay_type": "cell-based, human (HepG2); rat (primary hepatocytes)", "details": "palmitic acid-treated hepatocytes co-incubated with caspase 3 inhibitor (FIGS. 2E, 2G)", "method": "For microparticles (MPs) isolation, HepG2 and primary rat hepatocytes were seeded onto a 100 mm dish and cultured until reaching 80-85% of confluence. Cells were incubated with 0.25 mM of palmitic, stearic, oleic or linoleic acid (FFA) in serum-free DMEM, supplemented with 1.1% penicillin and streptomycin, 1% endotoxin-free bovine serum albumin (BSA), for up to 24 h. […] The uptake of FFAs from hepatocytes was evaluated by Oil red-O staining kit (Cayman, Ann Arbor, Mich., USA) according to the manufacturer instruction. To determine the effect of caspase 3 activity, hepatocytes were treated with a selective caspase 3 inhibitor, Ac-DEVD-CHO (BD Pharmingen, Franklin Lakes, N.J., US). Control cells were incubated with the same serum-free media in association to the vehicle that was used to dissolve the FFAs. After 24 h, the supernatant were collected and centrifuged twice at 3,000 rpm for 15 minutes to remove cell debris and aggregates. The supernatant was then transferred to new tubes and ultracentrifuged at 100,000 g for 90 minutes at 10° C., to avoid contamination of exosomes.\nThe supernatant was collected in new tubes and used as a MP-free control and the pelleted MPs were resuspended in 200 μl of PBS for flow cytometry or in 500 μl of EGM-2 growth medium for subsequent in vitro studies. The concentration of microparticles μg/mL was determined by the BCA protein assay and different concentrations of MPs (50, 125, 250 and 500 μg/mL) were used to perform the dose-dependent angiogenesis in vitro assays. For selected purposes, in particular for the characterization analyses, crude MPs were purified by 10-70% sucrose gradient ultracentrifugation at 150,000 g for 18 h at 10° C., collected as fractions in new tubes. […]\nFlow cytometry analyses for microparticles (or endothelial cells) detection were performed by using BD LSRII Flow Cytometer System (BD Biosciences, San Jose, Calif., USA) and the data were analyzed using FlowJo software (TreeStar Inc., Ashland, Oreg., USA). […]"}, "[4]": {"system": "HUVECs", "assay": "Internalization of microparticles into endothelial cells", "assay_type": "cell-based, human", "details": "HUVECs pre-treated with 10 mM MβCD 15 min or 2.5 μg/mL cav-1 nAb 30 min at 37° C., then MPs 6 h", "method": "Internalization of hepatocyte-derived MPs into HUVECs and the role of VNN1 and lipid raft were evaluated by flow cytometry, indirect immunofluorescence and electron microscopy. To investigate the MPs internalization into HUVECs, by flow cytometry, MPs were stained with 1 μM of Calcein, AM (MPCalcein) (BD Biosciences), a fluorescent dye with an emission wavelength of 515 nm, for 1 h in the dark at 37° C. MPs were centrifuged twice with PBS for 30 minutes at 35,000 rpm and resuspended in 500 μL of EGM medium. To block MPs internalization, MPsCalcein were incubated with or without 4 μg/mL of rabbit polyclonal anti-VNN1 antibody (S3055; Epitomics, Burlingame, Calif., USA) for 30 minutes at RT. A rabbit anti-GAPDH antibody (Abcam, Cambridge, Mass., USA) was used as a control. […] Cells were trypsinized and FITC positive HUVECs were detected by BD LSRII Flow Cytometer System (BD) and counted. […]\nThe MPs suspension was incubated in the dark for 4 minutes, and then 2 mL of 1% BSA was added and kept for 1 minute to stop the reaction. […] HUVECs (4×10^3 cell per well) were seeded onto a 24-well plate and depletion of cholesterol was assessed by a treatment with 10 mM of Methyl-β-cyclodextrin (MβCD) in serum-free EBM-2 medium for 15 minutes at 37° C., followed by wash with fresh medium. […]"}, "[5]": {"details": "HUVECs treated with MPs and Y27632, 10 μM"}}, "data": [{"compound": "C[C@@H](N)[C@H]1CC[C@H](C(=O)Nc2ccncc2)CC1", "note": "[Y-27632]", "values": [{"measurement": "tube formation (MP-mediated)", "setting": "[1]; [5]", "value": "significant decrease"}, {"measurement": "chemotaxis (MP-mediated)", "setting": "[2]; [5]", "value": "significant decrease"}]}, {"compound": "Ac-DEVD-CHO [selective caspase 3 inhibitor]", "values": [{"measurement": "formation and release of MPs", "setting": "[3]", "value": "drastically reduced"}]}, {"compound": "CCCCCCCCCCCCCCCCCC(=O)O", "note": "[stearic acid]", "values": [{"measurement": "tube formation induced by cell-free supernatants of FFA-treated hepatocytes", "setting": "[1]; supernatants from HepG2/primary rat hepatocytes incubated with FFA up to 24 h, VEGF-A positive control", "value": "marked increase"}, {"measurement": "endothelial cell oriented (chemotaxis) and non-oriented migration induced by cell-free supernatants of FFA-treated hepatocytes", "setting": "[2]; supernatants from hepatocytes incubated with FFA up to 24 h, VEGF-A positive control", "value": "marked increase"}]}, {"compound": "Methyl-β-cyclodextrin", "values": [{"measurement": "MPs internalization into the endothelial cells", "setting": "[4]", "value": "marked reduction"}]}]}
